pIC50: −log10 of the molar value.

In general, pIC50 refers to the negative decadic logarithm of the IC50, by convention in mol/L.

The target of this experiment is T1, IKK heterodimer (rhIKK1/IKK2) (Homo sapiens, UniProt O14920+O15111).
T1 construct: made in house; host or cells: baculovirus-infected insect cells (SF9)
T1 sequence (O14920 1-756): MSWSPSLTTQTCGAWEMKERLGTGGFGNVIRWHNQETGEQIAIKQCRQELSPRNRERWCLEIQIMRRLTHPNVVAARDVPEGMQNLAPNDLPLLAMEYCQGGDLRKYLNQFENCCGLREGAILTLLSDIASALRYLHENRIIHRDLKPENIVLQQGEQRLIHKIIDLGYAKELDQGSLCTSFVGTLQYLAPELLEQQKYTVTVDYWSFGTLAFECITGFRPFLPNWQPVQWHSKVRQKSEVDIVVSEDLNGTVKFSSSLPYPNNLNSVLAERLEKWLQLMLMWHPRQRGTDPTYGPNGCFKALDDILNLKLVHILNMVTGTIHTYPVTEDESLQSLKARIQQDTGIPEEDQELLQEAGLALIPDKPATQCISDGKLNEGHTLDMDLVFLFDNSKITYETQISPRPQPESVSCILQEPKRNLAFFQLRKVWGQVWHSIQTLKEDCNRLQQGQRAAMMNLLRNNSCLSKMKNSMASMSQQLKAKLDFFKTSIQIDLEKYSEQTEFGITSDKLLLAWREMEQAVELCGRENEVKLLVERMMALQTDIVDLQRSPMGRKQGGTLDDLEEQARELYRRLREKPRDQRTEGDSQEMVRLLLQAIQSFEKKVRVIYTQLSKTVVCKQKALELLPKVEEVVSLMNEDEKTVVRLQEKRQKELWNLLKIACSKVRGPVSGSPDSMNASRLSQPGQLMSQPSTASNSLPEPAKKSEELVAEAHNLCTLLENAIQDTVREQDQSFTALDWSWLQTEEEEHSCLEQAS
T1 sequence (O15111 1-745): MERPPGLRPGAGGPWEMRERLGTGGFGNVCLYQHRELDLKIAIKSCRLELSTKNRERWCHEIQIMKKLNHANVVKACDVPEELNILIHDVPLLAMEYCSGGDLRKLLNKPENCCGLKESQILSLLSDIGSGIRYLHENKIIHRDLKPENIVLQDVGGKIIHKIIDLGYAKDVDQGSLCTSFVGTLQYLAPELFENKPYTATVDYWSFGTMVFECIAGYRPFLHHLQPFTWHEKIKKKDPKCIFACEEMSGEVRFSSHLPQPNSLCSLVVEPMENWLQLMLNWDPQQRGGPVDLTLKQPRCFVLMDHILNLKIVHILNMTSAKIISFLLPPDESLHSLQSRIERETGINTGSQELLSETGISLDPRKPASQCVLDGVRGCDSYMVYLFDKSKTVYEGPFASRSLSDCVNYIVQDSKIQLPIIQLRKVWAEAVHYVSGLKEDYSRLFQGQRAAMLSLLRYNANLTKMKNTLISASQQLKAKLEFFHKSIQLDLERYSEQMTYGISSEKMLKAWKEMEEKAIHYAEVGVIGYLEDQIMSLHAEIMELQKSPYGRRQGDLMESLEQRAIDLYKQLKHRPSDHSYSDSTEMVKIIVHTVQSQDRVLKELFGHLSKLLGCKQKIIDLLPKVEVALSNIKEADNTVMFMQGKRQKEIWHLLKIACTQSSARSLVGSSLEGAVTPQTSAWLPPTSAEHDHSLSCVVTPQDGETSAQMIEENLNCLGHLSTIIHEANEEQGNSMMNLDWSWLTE
As to the kind of experiment: IKK heterodimer resin enzyme assay. Format: biochemical. Particulars: Table 1; read-out: HetD (IKK heterodimer assay values expressed as IC50). From the text: cDNAs of human IKK1 and IKK2 were amplified by reverse transcriptase-polymerase chain reaction from human placental RNA (Clonetech). hIKK1 was subcloned into pFastBac HTa (Life Technologies) and expressed as N-terminal His6-tagged fusion protein. The hIKK2 cDNA was amplified using a reverse oligonucleotide primer which incorporated the peptide sequence for a FLAG-epitope tag at the C-terminus of the IKK2 coding region (DYKDDDDKD). The hIKK2:FLAG cDNA was subcloned into the baculovirus vector pFastBac. The rhIKK2 ([…]) mutant was constructed in the same vector used for wild type rhIKK2 using a QuikChange™ mutagenesis kit (Stratagene). Viral stocks of each construct were used to infect insect cells grown in 40L suspension culture. […] Cell lysates were stored at −80° C. until purification of the recombinant proteins was undertaken as described below.
Isolation of rhIKK1/IKK2 Heterodimer
The heterodimer enzyme was produced by coinfection in a baculovirus system (FLAG IKK2/IKK1 His; MOI=0.1 and I=72 hrs). Infected cells were centrifuged and the cell pellet (10.0 g) was suspended in 50 ml of buffer A. The protein suspension was microfluidized and centrifuged at 100,000×g for 45 min. Imidazole was added to the supernatant to a final concentration of 10 mM. The protein was allowed to bind 25 ml of Ni-NTA resin by mixing for 2 hrs. The protein-resin slurry was poured into a 25 ml column and washed with 250 ml of buffer A containing 10 mM imidazole followed by 125 ml of buffer A containing 50 mM imidazole. Buffer A, containing 300 mM imidazole, was then used to elute the protein. A 75 ml pool was collected and NP-40 was added to a final concentration of 0.1%. The protein solution was then dialyzed against buffer B. The dialyzed heterodimer enzyme was then allowed to bind to 25 ml of anti-FLAG M2 agarose affinity gel overnight with constant mixing. The protein-resin slurry was then centrifuged for 5 min at 2,000 rpm. The supernatant was collected and the resin re-suspended in 100 ml of buffer C containing 0.1% NP-40. The resin was washed with 375 ml of buffer C containing 0.1% NP-40. The protein-resin was poured into a 25 ml column and the enzyme eluted using buffer B containing FLAG peptide. Enzyme fractions (100 ml) were collected and concentrated to 20 ml using an Amicon membrane with molecular weight cut-off of 30 kDa. Bovine serum albumin was added to the concentrated enzyme to final concentration of 0.1%. The enzyme was then aliquoted and stored at −80° C.
IKK Heterodimer Resin Enzyme Assay
IKK heterodimer kinase activity was measured using a biotinylated IκBα peptide (Gly-Leu-Lys-Lys-Glu-Arg-Leu-Leu-Asp-Asp-Arg-His-Asp-Ser32-Gly-Leu-Asp-Ser36-Met-Lys-Asp-Glu-Glu) (American Peptide Co.). 20 ul of the standard reaction mixture contained 5 μM biotinylated IκBα peptide, 0.1 μCi/reaction [γ-^33P] ATP (Amersham) (about 1×10^5 cpm), 1 μM ATP (Sigma), 1 mM DTT (Sigma), 2 mM MgCl2 (Sigma), 2 mM MnCl2 (Sigma), 10 mM NaF (Sigma), 25 mM Hepes (Sigma) buffer, pH 7.6 and 20 μl enzyme solution and 10 μl inhibitor in a final volume of 50 μl. After incubation at 25° C. for 30 min, 150 μl resin (Dowex anion-exchange resin AG1X8 200-400 mesh) in 900 mM formate, pH 3.0 was added to each well to stop the reaction. Resin was allowed to settle for one hour and 50 ul of supernatant was removed to a Micolite-2 flat bottom plate (Dynex). 150 μl of scintillation fluid (Microscint 40) (Packard) was added to each well. Incorporation of [γ-^33P] ATP was measured using a Top-Count NXT (Packard).
With `CCOC(=O)c1nn(-c2ccc(S(N)(=O)=O)cc2)c2c1CNc1ccccc1-2` [Example 12, ethyl 1-[4-(aminosulfonyl)phenyl]-4,5-dihydro-1H-pyrazolo[4,3-c]quinoline-3-carboxylate], the pIC50 is < 4.00. With `CCOC(=O)c1nn(-c2ccc(S(N)(=O)=O)cc2)c2c1CN(S(=O)(=O)c1ccc(C)cc1)c1ccccc1-2` [Example 14, ethyl 1-[4-(aminosulfonyl)phenyl]-5-[(4-methylphenyl)sulfonyl]-4,5-dihydro-1H-pyrazolo[4,3-c]quinoline-3-carboxylate], the pIC50 was < 4.00.

For the compound `NSOOc1ccc(-n2nc(C(N)=O)c3c2-c2ccccc2CS3)cc1` [Example 10, 1-{4-[(aminothio)peroxy]phenyl}-1,5-dihydroisothiochromeno[4,3-c]pyrazole-3-carboxamide], the pIC50 is < 4.00. As to `CCOC(=O)c1nn(-c2ccc(OOSN)cc2)c2c1SCc1ccccc1-2` [Example 9, ethyl 1-{4-[(aminothio)peroxy]phenyl}-1,5-dihydroisothiochromeno[4,3-c]pyrazole-3-carboxylate], the pIC50 was < 4.00. For `NSOOc1ccc(-n2nc(C(N)=O)c3c2-c2ccc4c(c2CS3)OCO4)cc1` [Example 11, 8-{4-[(aminothio)peroxy]phenyl}-4,8-dihydro[1,3]dioxolo[7,8]isothiochromeno[4,3-c]pyrazole-6-carboxamide], the pIC50 was < 4.00. Take `Cc1ccc(S(=O)(=O)N2Cc3c(C(N)=O)nn(-c4ccc(S(N)(=O)=O)cc4)c3-c3ccccc32)cc1` [Example 15, 1-[4-(aminosulfonyl)phenyl]-5-[(4-methylphenyl)sulfonyl]-4,5-dihydro-1H-pyrazolo[4,3-c]quinoline-3-carboxamide]: the pIC50 is < 4.00.

Values taken from patent publication US7211597B2, “Substituted pyrazolyl compounds for the treatment of inflammation” (priority 2001, dated 2007).
